The text below walks through data of patent US9492510B2, “Composition and method for inhibiting tumor cell growth” (St. Jude Children's Research Hospital, priority 2006, dated 2016).

“Also recorded” adds a separate entry of the source. Where two headings read alike, the source gives them in different places.

In data set [1] the target is T1, hiCE (human intestinal carboxylesterase) (Homo sapiens, UniProt O00748).
T1 sequence (O00748 27-559): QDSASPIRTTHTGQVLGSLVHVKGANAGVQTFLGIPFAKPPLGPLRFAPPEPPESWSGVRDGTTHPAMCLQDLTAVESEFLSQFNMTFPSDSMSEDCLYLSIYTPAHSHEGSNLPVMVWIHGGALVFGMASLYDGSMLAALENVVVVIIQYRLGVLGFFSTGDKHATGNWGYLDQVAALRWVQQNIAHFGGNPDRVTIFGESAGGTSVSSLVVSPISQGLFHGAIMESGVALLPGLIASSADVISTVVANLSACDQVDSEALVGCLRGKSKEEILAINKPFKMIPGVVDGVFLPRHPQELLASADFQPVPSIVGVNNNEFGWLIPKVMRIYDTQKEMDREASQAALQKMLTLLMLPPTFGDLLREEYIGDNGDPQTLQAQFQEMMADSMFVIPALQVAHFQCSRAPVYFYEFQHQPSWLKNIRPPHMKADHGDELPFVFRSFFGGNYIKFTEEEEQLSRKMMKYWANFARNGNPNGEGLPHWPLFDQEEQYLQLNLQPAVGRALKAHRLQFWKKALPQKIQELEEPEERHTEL
As to the kind of experiment: Kinetics of CPT-11 hydrolysis by purified hiCE. It counts as biochemical. An excerpt:
(§1) These experiments determined the Km, Vmax, kcat and kcat/Km values for the different enzymes.
(§2) Protein Purification. […] For hiCE, an alternative purification procedure was developed using DEAE chromatography and elution with a pH/salt gradient.
(§3) Determination of Kinetic Parameters for Substrate Hydrolysis.

The test system of data set [2] is SK-N-As cells. Put plainly: Growth inhibition of adenovirus-transduced SK-N-As cells by CPT-11. Format: cell-based. The settings on record: Homo sapiens. As to the method: (§4) Construction of Adenovirus. Replication-deficient adenovirus expressing hCElm6 or rCE were constructed using standard protocols (Wierdl, et al. 2001. Cancer Res. 61:5078-5082). Multiplicity of infection (moi) was defined as the number of plaques produced in 1×10^6 293 cells in a total volume of 1 ml of media after incubation with virus for 1 hour.
(§5) Growth Inhibition Assays.

For data set [3] the following is noted: CPT-11 administered to humans; cited from earlier work.
The conditions of data set [4]: mice, within the first hour of dosing; cited from earlier work.
Data set [5] concerns U373MG cells. Put plainly: Growth inhibition by CPT-11 of U373MG cells. It counts as cell-based, human. As to the method: Experiments were also performed in human brain tumor cells (U373MG) where the growth of the cells was examined in cells that expressed the mutant form of the human CE enzyme.
(§6) Experiments were also performed to determine whether cells expressing a secreted form of hCElm6 (SEQ ID NO:16) produced media that had CE activity.
(§7) Transfection of Cell Lines. Transient transfection of Cos7 cells was achieved by electroporation (Potter, et al. 1998. Cancer Res. 52:2646-2651). For the generation of stable cell lines, cDNAs were ligated into pIRESneo and U373MG cells were electroporated under similar conditions. Transfectants were selected in media containing 400 μg/ml of G418. Since the CE cDNA was linked via an internal ribosome entry sequence (IRES) to the neomycin gene, selection of individual G418-resistant clones was not necessary.
as §4, §5

The subject of data set [6] is rCE (rabbit liver carboxylesterase), wild type, SEQ ID NO:2. The settings on record: CPT-11 hydrolysis; cited from earlier work.
For data set [7] the following is noted: patients; cited from earlier work.
Data set [8] relates to U373MG cells. Put plainly: Growth inhibition of U373MG cells expressing intracellular or secreted hCE1mut6 by CPT-11. Format: cell-based. The settings on record: Homo sapiens, U373 MG, read-out: IC50 for CPT-11. On the procedure:
as §6, §5

Data set [9] deals with hCE1 (human liver carboxylesterase), wild type, SEQ ID NO:1. As to conditions: CPT-11 hydrolysis; cited from earlier work.
In data set [10] the test system is Rh30 cells. As to the kind of experiment: Growth inhibition of adenovirus-transduced Rh30 cells by CPT-11. As to conditions: Homo sapiens. Format: cell-based. On the procedure:
as §4, §5

Data set [11] has as its system COS7 cells. As to the kind of experiment: Growth inhibition of transiently transfected Cos7 cells by CPT-11. Format: cell-based, African green monkey. The settings on record: Chlorocebus sabaeus. On the procedure: as §7, §5
For data set [12], the target named is T2, hCE1 variant hCE1m6 (hCE1mut6; L362M, M363L, K459R, F448Y, Q449R, L358I, S364G, Q362 insertion), SEQ ID NO:3 (Homo sapiens, UniProt P23141, F449Y/K460R/L358I/L363M/M364L/Q450R/S365G).
T2 sequence (P23141 18-567 L358I/L363M/M364L/S365G/F449Y/Q450R/K460R): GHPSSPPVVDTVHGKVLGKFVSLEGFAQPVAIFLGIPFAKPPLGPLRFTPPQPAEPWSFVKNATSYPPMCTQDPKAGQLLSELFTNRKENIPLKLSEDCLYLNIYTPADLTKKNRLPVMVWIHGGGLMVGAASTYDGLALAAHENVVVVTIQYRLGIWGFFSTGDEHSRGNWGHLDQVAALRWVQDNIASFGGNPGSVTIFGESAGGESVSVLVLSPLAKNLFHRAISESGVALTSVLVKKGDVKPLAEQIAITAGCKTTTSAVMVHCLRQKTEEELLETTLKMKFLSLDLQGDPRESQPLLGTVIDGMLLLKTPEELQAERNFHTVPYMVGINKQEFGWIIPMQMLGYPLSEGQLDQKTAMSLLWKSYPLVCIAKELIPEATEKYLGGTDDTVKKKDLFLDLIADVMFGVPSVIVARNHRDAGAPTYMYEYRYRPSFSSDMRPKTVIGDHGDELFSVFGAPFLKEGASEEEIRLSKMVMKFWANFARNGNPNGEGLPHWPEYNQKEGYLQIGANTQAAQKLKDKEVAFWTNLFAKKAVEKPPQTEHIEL
As to the kind of experiment: Kinetics of CPT-11 hydrolysis by purified hCE1m6. Format: biochemical.
Description: as §1, §2, §3

The subject of data set [13] is topoisomerase I. The settings on record: cited from earlier work.
Data set [14] can be described thus: CE activity (o-NPA) in human tumor cell lines expressing CE after plasmid transfection or adenoviral transduction. Format: biochemical.
Description: […], it was observed that expression of hiCE following plasmid-mediated transfection was frequently lower than that seen with rCE or […]. […] Since expression of the transgene from this expression vector is co-regulated with the neo gene via an IRES sequence, selection with similar concentrations of G418 should result in cell lines that express approximately equal levels of recombinant protein. However, the average levels of CE activity in U373hiCE, U373hCE1 and U373hCE1m6 cells were 287.6±76.6, 1077.1±77.5, and 466.5±52.6 nmoles/min/mg, respectively.
Carboxylesterase Assays. CE activity was determined using a spectrophotometric assay with 3 mM o-nitrophenyl acetate (o-NPA) as a substrate (Potter, et al. 1998. Cancer Res. 52:2646-2651; Wierdl, et al. 2001. Cancer Res. 61:5078-5082; Beaufay, et al. 1974. J. Cell Biol. 61:188-200). Data were expressed as nmoles o-nitrophenol produced per minute per milligram of protein. To correct for differences in CE expression within transfected cells, the enzyme activity values were corrected for the level of immuno-reactive CE protein as determined from western analyses.
as §7, with “necessary. Routinely, whole cell sonicates obtained from these pooled populations of cells contained 200-500 nmoles/min/mg of CE activity.” for “necessary.”
as §4

A short description of data set [15]: In vitro stability of purified CE stored at room temperature in 50 mM Hepes. It counts as physicochemical. The settings on record: purified protein in 50 mM Hepes pH7.4, room temperature. On the procedure:
Enzymes were aliquoted in 50 mM Hepes, stored at 20° C. and CE activities were determined at various time intervals, up to 11 weeks. Data are expressed as the amount of active CE remaining as compared to day 0.
Therefore, the loss of CE activity was evaluated in preparations of these proteins, as well as hCElm6 that had been stored at room temperature. In these studies, purified protein was aliquoted in 50 mM Hepes pH7.4, and enzyme activity was determined over a period of 12 weeks.

A short description of data set [16]: Kinetic parameters for CPT-11 hydrolysis by purified recombinant CEs. The settings on record: hCE1 and rCE values rest on cited data. Format: biochemical. On the procedure: To directly compare the abilities of the mammalian CEs to hydrolyze CPT-11, a series of biochemical studies were carried out using the purified proteins in vitro. These experiments determined the Km, Vmax, kcat and kcat/Km values for the different enzymes.
as §2, §3

Substrate in data set [17]: CCc1c2c(nc3ccc(OC(=O)N4CCC(N5CCCCC5)CC4)cc13)-c1cc3c(c(=O)n1C2)COC(=O)[C@]3(O)CC
Put plainly: purified protein, by the assay type. The settings on record: other: CPT-11 hydrolysis, hiCE.

Take `CCc1c2c(nc3ccc(OC(=O)N4CCC(N5CCCCC5)CC4)cc13)-c1cc3c(c(=O)n1C2)COC(=O)[C@]3(O)CC` [CPT-11, 7-ethyl-10-[4-(1-piperidino)-1-piperidino]carbonyloxycamptothecin]: the maximal velocity (Vmax) – broadly, the rate approached at saturating substrate – is 1.49 ± 0.04 nmol/min/mg in [1], 18 ± 0.9 nmol/min/mg in [6], 0.36 ± 0.017 nmol/min/mg in data set [9] and 2.11 ± 0.06 nmol/min/mg in data set [12]. The IC50 (as a rule, the point on the concentration scale where inhibition reaches its midpoint) was 0.5 µM in data set [2] (read-out: CPT-11 IC50, AdCMVhCE1m6, hCE1m6); 0.6 µM in [2] (read-out: CPT-11 IC50, AdCMVrCE, rCE); 31.7 µM in data set [2] (read-out: CPT-11 IC50, AdVC, no enzyme); 0.002 µM in data set [2] (read-out: IC50, SK-N-As, transduced cells); 24 µM in data set [5] (Homo sapiens, U373 MG, read-out: CPT-11 IC50, U373IRES cells (pIRESneo, no enzyme expressed)); 7.08 µM in [8]. Moreover, the 50% inhibitory concentration (IC50) in data set [10] (Rh30, read-out: CPT-11 IC50, AdCMVhCE1m6, hCE1m6) was 2 µM; in [10] (Rh30, read-out: CPT-11 IC50, AdCMVrCE, rCE), 3.4 µM; in data set [10] (Rh30, read-out: CPT-11 IC50, AdVC, no enzyme), 64.3 µM; in data set [10] (Rh30, read-out: IC50, Rh30, transduced cells), 0.0006 µM; in [11] (COS-7, read-out: IC50 (growth inhibition), cells expressing hCE1mut6) it was 12 to 20 µM; in data set [11] (COS-7, read-out: IC50 (growth inhibition), cells expressing rCE), 12 to 20 µM. The IC50 in data set [11] (COS-7, read-out: IC50 (growth inhibition), cells expressing wild-type hCE1) came to 77.1 µM. Further, the “fraction of CPT-11 converted to SN-38” value in data set [3] is “less than 5%”. Further, the “fraction of CPT-11 hydrolyzed to SN-38” value in data set [4] was “greater than 50%”. Also, the values for the Km in data set [6] and in data set [9] were 6.2 ± 0.63 µM and 82.8 ± 9.6 µM, respectively. The dose-limiting toxicity entry in data set [7] is “myelosuppression and secretory diarrhea limit the amount of prodrug; also recorded: myelosuppression and secretory diarrhea limit the amount of drug”.

In the case of `CCc1c2c(nc3ccc(O)cc13)-c1cc3c(c(=O)n1C2)COC(=O)[C@]3(O)CC` [SN-38, 7-ethyl-10-hydroxy-camptothecin], the “inhibition of topoisomerase I” value in [13] is on record as “potent inhibitor of topoisomerase I”.

B1: hiCE (human intestinal carboxylesterase) (Homo sapiens) (protein)
chain: T1 sequence (O00748 27-559)
Turning to B1, the “average levels of CE activity” value in [14] (U373MG cells stably transfected with pIRESneo constructs, monitored over an extended time period) turned out to be 287.6 ± 76.6 nmol/min/mg. Moreover, the CE Activity in [14] (± SD, U373MG cells stably transfected (pIRESneo) expressing the enzyme) was 408.2 ± 5.6 nmol/min/mg. Moreover, the “time to loss of 50% of CE activity” value in data set [15] is listed as approximately 30 days. The “sensitization of cells to CPT-11” value in data set [5] (U373MG cells expressing the labelled enzyme) was “sensitized”. The “Ratio kcat/Km as compared to hCE1” value in [16] came out at 91. In addition, the Km (usually the concentration of substrate that gives half-maximal velocity) in data set [17] was 3.35 ± 0.34 µM.
